In PubChem BioAssay AID1963960 (Molecular Pharmacology Branch, DTP, NCI, 2024):

Tested on: MDA-MB-468 spheroids with HUVEC/MSC, viability
Experiment: Anticancer human tumor MDA-MB-468 cell line growth inhibition [PI3K];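 note: spheroids exposed to agents for seven days before readout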;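 for viability, T/C: 100% = DMSO vehicle control viability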
Details: for IC50: curve of first compound; for viability, T/C: stronger effect = lower value
In short: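 High-throughput combination screen: PI3K inhibitors crossed with targeted small molecules on complex spheroids of tumor cells, HUVEC and MSCs at 37 degrees C, 5% CO2. Top concentration was at or near clinical Cmax (otherwise 10 microM), with half-log decrements.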

[1] = second compound 0.0316 µM, first compound 0.000316 µM
[2] = second compound 0.0316 µM, first compound 0.001 µM
[3] = second compound 0.0316 µM, first compound 0.00316 µM
[4] = second compound 0.0316 µM, first compound 0.01 µM
[5] = second compound 0.0316 µM, first compound 0.0316 µM
[6] = second compound 0.0316 µM, first compound 0.1 µM
[7] = second compound 0.1 µM, first compound 0.000316 µM
[8] = second compound 0.1 µM, first compound 0.001 µM
[9] = second compound 0.1 µM, first compound 0.00316 µM
[10] = second compound 0.1 µM, first compound 0.01 µM
[11] = second compound 0.1 µM, first compound 0.0316 µM
[12] = second compound 0.1 µM, first compound 0.1 µM
[13] = second compound 0.316 µM, first compound 0.000316 µM
[14] = second compound 0.316 µM, first compound 0.001 µM
[15] = second compound 0.316 µM, first compound 0.00316 µM
[16] = second compound 0.316 µM, first compound 0.01 µM
[17] = second compound 0.316 µM, first compound 0.0316 µM
[18] = second compound 0.316 µM, first compound 0.1 µM
[19] = second compound 1 µM, first compound 0.000316 µM
[20] = second compound 1 µM, first compound 0.001 µM
[21] = second compound 1 µM, first compound 0.00316 µM
[22] = second compound 1 µM, first compound 0.01 µM
[23] = second compound 1 µM, first compound 0.0316 µM
[24] = second compound 1 µM, first compound 0.1 µM
[25] = second compound 3.16 µM, first compound 0.000316 µM
[26] = second compound 3.16 µM, first compound 0.001 µM
[27] = second compound 3.16 µM, first compound 0.00316 µM
[28] = second compound 3.16 µM, first compound 0.01 µM
[29] = second compound 3.16 µM, first compound 0.0316 µM
[30] = second compound 3.16 µM, first compound 0.1 µM
[31] = second compound 10 µM, first compound 0.000316 µM
[32] = second compound 10 µM, first compound 0.001 µM
[33] = second compound 10 µM, first compound 0.00316 µM
[34] = second compound 10 µM, first compound 0.01 µM
[35] = second compound 10 µM, first compound 0.0316 µM
[36] = second compound 10 µM, first compound 0.1 µM

Q: CC(=O)c1c(C)c2cnc(Nc3ccc(N4CCNCC4)cn3)nc2n(C2CCCC2)c1=O + Cc1nc(NC(=O)N2CCCC2C(N)=O)sc1-c1ccnc(C(C)(C)C(F)(F)F)c1 was tested. Which IC50 (second compound 0.0316 µM) did it give?
A: The IC50 was > 100 nM.

Q: What about the IC50 (second compound 0.1 µM) of the same molecule?
A: Its IC50 is > 100 nM.

Q: And the IC50 (second compound 0.316 µM)?
A: Its IC50 is > 100 nM.

Q: And the IC50 (second compound 1 µM)?
A: The IC50 was > 100 nM.

Q: What about the IC50 (second compound 3.16 µM) of the same molecule?
A: Its IC50 is > 100 nM.

Q: What about the IC50 (second compound 10 µM) of the same molecule?
A: The IC50 was < 0.316 nM.

Q: What about the viability, T/C [1] of the same molecule?
A: The viability, T/C was 91.5%.

Q: What about the viability, T/C [2] of the same molecule?
A: Its viability, T/C is 92.1%.

Q: What about the viability, T/C [3] of the same molecule?
A: The viability, T/C was 74.8%.

Q: And the viability, T/C [4]?
A: Its viability, T/C is 93.4%.

Q: And the viability, T/C [5]?
A: Its viability, T/C is 70.7%.

Q: And the viability, T/C [6]?
A: Its viability, T/C is 70.2%.

Q: And the viability, T/C [7]?
A: The viability, T/C was 88.3%.

Q: What about the viability, T/C [8] of the same molecule?
A: Its viability, T/C is 92.2%.

Q: What about the viability, T/C [9] of the same molecule?
A: The viability, T/C was 86.5%.

Q: And the viability, T/C [10]?
A: Its viability, T/C is 97%.

Q: What about the viability, T/C [11] of the same molecule?
A: The viability, T/C was 61.6%.

Q: What about the viability, T/C [12] of the same molecule?
A: The viability, T/C was 67.2%.

Q: And the viability, T/C [13]?
A: The viability, T/C was 96.2%.

Q: What about the viability, T/C [14] of the same molecule?
A: Its viability, T/C is 95%.

Q: And the viability, T/C [15]?
A: The viability, T/C was 74.8%.

Q: And the viability, T/C [16]?
A: The viability, T/C was 91.9%.

Q: And the viability, T/C [17]?
A: The viability, T/C was 72.5%.

Q: What about the viability, T/C [18] of the same molecule?
A: The viability, T/C was 67.6%.

Q: And the viability, T/C [19]?
A: The viability, T/C was 90.1%.

Q: What about the viability, T/C [20] of the same molecule?
A: Its viability, T/C is 75.7%.

Q: What about the viability, T/C [21] of the same molecule?
A: Its viability, T/C is 73.5%.

Q: And the viability, T/C [22]?
A: Its viability, T/C is 75.2%.

Q: What about the viability, T/C [23] of the same molecule?
A: The viability, T/C was 75.6%.

Q: And the viability, T/C [24]?
A: The viability, T/C was 76.8%.

Q: And the viability, T/C [25]?
A: The viability, T/C was 74.9%.

Q: What about the viability, T/C [26] of the same molecule?
A: Its viability, T/C is 60.4%.

Q: And the viability, T/C [27]?
A: Its viability, T/C is 57.5%.

Q: What about the viability, T/C [28] of the same molecule?
A: The viability, T/C was 68.8%.

Q: And the viability, T/C [29]?
A: Its viability, T/C is 55.4%.

Q: And the viability, T/C [30]?
A: Its viability, T/C is 55.2%.

Q: And the viability, T/C [31]?
A: Its viability, T/C is 32.1%.

Q: What about the viability, T/C [32] of the same molecule?
A: The viability, T/C was 24.2%.

Q: And the viability, T/C [33]?
A: The viability, T/C was 31.2%.

Q: And the viability, T/C [34]?
A: Its viability, T/C is 28.6%.

Q: And the viability, T/C [35]?
A: Its viability, T/C is 29.5%.

Q: What about the viability, T/C [36] of the same molecule?
A: The viability, T/C was 27.6%.

Q: What does the source list for CC(C)n1nc(-c2ccc3oc(N)nc3c2)c2c(N)ncnc21 + Cc1nc(NC(=O)N2CCCC2C(N)=O)sc1-c1ccnc(C(C)(C)C(F)(F)F)c1?
A: IC50 (second compound 0.0316 µM): 50.6 nM; IC50 (second compound 0.1 µM): 33 nM; IC50 (second compound 0.316 µM): 24.5 nM; IC50 (second compound 1 µM): 19 nM; IC50 (second compound 3.16 µM): 14.7 nM; IC50 (second compound 10 µM): < 0.316 nM; viability, T/C [1]: 88.3%; viability, T/C [2]: 82.8%; viability, T/C [3]: 89.5%; viability, T/C [4]: 101%; viability, T/C [5]: 74.6%; viability, T/C [6]: 14.4%; viability, T/C [7]: 93.7%; viability, T/C [8]: 79.6%; viability, T/C [9]: 85.5%; viability, T/C [10]: 95%; viability, T/C [11]: 51.6%; viability, T/C [12]: 10.8%; viability, T/C [13]: 99.5%; viability, T/C [14]: 94.3%; viability, T/C [15]: 86.2%; viability, T/C [16]: 82.5%; viability, T/C [17]: 40.6%; viability, T/C [18]: 10.7%; viability, T/C [19]: 86.4%; viability, T/C [20]: 75.6%; viability, T/C [21]: 63.6%; viability, T/C [22]: 66.2%; viability, T/C [23]: 42.2%; viability, T/C [24]: 11.8%; viability, T/C [25]: 64.5%; viability, T/C [26]: 58.4%; viability, T/C [27]: 61.1%; viability, T/C [28]: 59.2%; viability, T/C [29]: 31.8%; viability, T/C [30]: 9.62%; viability, T/C [31]: 42.4%; viability, T/C [32]: 21.8%; viability, T/C [33]: 32.1%; viability, T/C [34]: 20.7%; viability, T/C [35]: 18.5%; viability, T/C [36]: 5.69%

Q: Which results are given for CCCS(=O)(=O)Nc1ccc(F)c(C(=O)c2c[nH]c3ncc(-c4ccc(Cl)cc4)cc23)c1F + Cc1nc(NC(=O)N2CCCC2C(N)=O)sc1-c1ccnc(C(C)(C)C(F)(F)F)c1?
A: IC50 (second compound 0.0316 µM): 5120 nM; IC50 (second compound 0.1 µM): 3970 nM; IC50 (second compound 0.316 µM): 3550 nM; IC50 (second compound 1 µM): 1440 nM; IC50 (second compound 3.16 µM): 1780 nM; IC50 (second compound 10 µM): < 31.6 nM; viability, T/C [5]: 89.5%; viability, T/C [6]: 95.7%; viability, T/C (second compound 0.0316 µM, first compound 0.316 µM): 91.2%; viability, T/C (second compound 0.0316 µM, first compound 1 µM): 104%; viability, T/C (second compound 0.0316 µM, first compound 3.16 µM): 76.8%; viability, T/C (second compound 0.0316 µM, first compound 10 µM): 12.9%; viability, T/C [11]: 92.8%; viability, T/C [12]: 97.5%; viability, T/C (second compound 0.1 µM, first compound 0.316 µM): 93.6%; viability, T/C (second compound 0.1 µM, first compound 1 µM): 97%; viability, T/C (second compound 0.1 µM, first compound 3.16 µM): 59.5%; viability, T/C (second compound 0.1 µM, first compound 10 µM): 11.6%; viability, T/C [17]: 103%; viability, T/C [18]: 86.5%; viability, T/C (second compound 0.316 µM, first compound 0.316 µM): 80.5%; viability, T/C (second compound 0.316 µM, first compound 1 µM): 105%; viability, T/C (second compound 0.316 µM, first compound 3.16 µM): 54.6%; viability, T/C (second compound 0.316 µM, first compound 10 µM): 9.77%; viability, T/C [23]: 113%; viability, T/C [24]: 76.1%; viability, T/C (second compound 1 µM, first compound 0.316 µM): 63.9%; viability, T/C (second compound 1 µM, first compound 1 µM): 70.8%; viability, T/C (second compound 1 µM, first compound 3.16 µM): 49.3%; viability, T/C (second compound 1 µM, first compound 10 µM): 9.67%; viability, T/C [29]: 72.3%; viability, T/C [30]: 61%; viability, T/C (second compound 3.16 µM, first compound 0.316 µM): 67.9%; viability, T/C (second compound 3.16 µM, first compound 1 µM): 62.9%; viability, T/C (second compound 3.16 µM, first compound 3.16 µM): 36.9%; viability, T/C (second compound 3.16 µM, first compound 10 µM): 10%; viability, T/C [35]: 43%; viability, T/C [36]: 28.2%; viability, T/C (second compound 10 µM, first compound 0.316 µM): 36.4%; viability, T/C (second compound 10 µM, first compound 1 µM): 31.1%; viability, T/C (second compound 10 µM, first compound 3.16 µM): 26.2%; viability, T/C (second compound 10 µM, first compound 10 µM): 7.64%
